Laboratory results published in patent publication US6495529B1 (Warner-Lambert Company, priority 1998, dated 2002).

What was measured:
[1] = test system: rats; assay: Dosage that raised mean arterial pressure 10% in rat; assay type: in vivo
[2] = target: α1-receptors; assay type: binding, dog; conditions: read-out: Alpha-1 Ki
Experimental: The lungs of mongrel dogs were separated from cartilaginous airways and major blood vessels, weighted, chopped and placed into 10 volumes of ice-cold buffered sucrose (50 mM Tris-HCl pH 7.4, 1 mM EGTA, 0.32 M Sucrose). The tissue was then homogenized in a Polytron tissue homogenizer. The homogenate was filtered through two layers of cheesecloth, and the filtrate was dounced three times using a Con-Turque Potter homogenizer. […] The supernatant was recentrifuged at 30,000×g for 30 min at 4° C. and the resulting pellet was washed and resuspended in 10 volumes of Tris buffer (50 mM Tris HCL, pH 7.4, 1 mM EGTA) and incubated at 37° C. for 30 min in a shaking water bath. The suspension was centrifuged at 4° C., at 30,000×g for 30 min and the resulting pellet washed in 10 volumes of Tris buffer. […] Protein concentration was then determined by the Lowry method and the final suspension was adjusted to 10 mg of protein/ml, aliquoted and stored at −90° C.
Nonspecific binding was determined for each concentration point in separate incubations, with 10 μM phentolamine. Each experimental point was determined in triplicate. […] All binding assay incubations were terminated by rapid dilution with 2 ml of ice-cold wash buffer (50 mM Tris-HCl, pH 7.4) and filtration through Whatman GF/B filters using Brandel receptor-binding harvester.
All data were analyzed with the aid of microcomputer nonlinear curve fitting programs (PRISM 2.0, Graphpad Software, San Diego Calif.).
The receptors resident in each of the three membrane preparations were evaluated by standard saturation analysis following the addition of increasing concentrations of the appropriate radioligand. […]

[3] = test system: New Zealand white rabbits; assay: Intraocular pressure (IOP) after topical application to rabbit eye
[4] = test system: Sprague Dawley rats; assay: Nasal airway pressure in normal (non-histamine-challenged) rats; conditions: for Mean Decrease in Nasal Airway Pressure: i.v.; for Mean decrease in nasal airway pressure, % Change: 100% dose i.v.; for Mean decrease in nasal airway pressure, % Change / Nasal airway pressure, Control: non-histamine-challenged rats; for Nasal airway pressure, Post Drug: after 100% dose (dose raising MAP 10%) into jugular vein; for Nasal airway pressure, Control: before drug
[5] = test system: mongrel dogs; assay: Intravenous dose increasing mean arterial pressure 10% in anesthetized dogs; conditions: anesthetized dog, i.v.
[6] = test system: New Zealand white rabbits; assay: Pupil diameter / mydriasis after topical application to rabbit eye
[7] = test system: Swiss-Webster mice; assay: Locomotor stimulant and depressant effects in mice; conditions: mice, i.p.; for locomotor depressant effect (in words) / locomotor stimulant effect (in words): 2-hour session
Experimental: Male Swiss-Webster mice (HSD ND4, Harlan Sprague Dawley, Houston, Tex.) aged 2-3 months were used in these studies. Each dose group consisted of 8 mice. The mice were housed 2 to 4 per cage in 30.4×22.9×15.2 cm clear polycarbonate cages with food and water available ad libitum for at least one week prior to locomotor activity testing. The colony was maintained at 23±1° C., on a normal light-dark cycle beginning at 0700 hr. All testing took place during the light portion of the light-dark cycle.
Horizontal (forward movement) locomotor activity was measured using a standardized, optical activity monitoring system [Model KXYZCM (16), Omnitech Electronics, Columbus, Ohio]. Activity was monitored in forty 40.5×40.5×30.5 cm clear acrylic chambers that where housed in sets of two within larger sound-attenuating chambers. A panel of 16 infrared beams and corresponding photodetectors were spaced 2 cm apart along the sides and 2.4 cm above the floor of each activity chamber. A 7.5-W incandescent light above each chamber provided dim illumination via a rheostat set to 20% of full scale. Fans provided an 80-dB ambient noise level within the chamber.
(+)-Amphetamine was used as a positive control. The total horizontal distance traversed (cm) was recorded at 10 minute intervals for a 2-hour session. Separate groups of 8 mice were assigned to each dose or saline group, and dose-effect testing continued for each compound until maximal stimulant or depressant effects could be estimated. A separate control group was tested along with each compound.
Using TableCurve 2D v2.03 (Jandel Scientific), the mean average total distance traversed (cm/10 min) for that period was fit to a 3-parameter logistic peak function of log10 dose (with the constant set to the mean of the saline group), and the maximum effect estimated from the resulting curve. The ED50 (dose producing ½ maximal stimulant activity) was estimated from a linear regression against log10 dose of the ascending portion of the dose-effect curve. The stimulant efficacy was the peak effect of the compound (cm/10 min) as estimated from the logistic peak function, minus the mean control distance traveled (cm/10 min), and was expressed for each stimulant compound as a ratio to the stimulant efficacy determined for (+)-amphetamine.
The mean average total distance traversed (cm/10 min) for that period were fit to a linear function of log10 dose of the descending portion of the dose-effect curve. […] Efficacy was the ratio of maximal depressant effect to maximum possible depression for each compound (mean average total distance of the control group minus the lowest mean total distance, expressed as a ratio to the control group total distance).
Time course data for each compound were considered in 2-way analyses of variance with dose as a between-group and time as a within-group factor. The dose-effect data were considered in 1-way analyses of variance, and planned individual comparisons were conduced between each dose and the saline control group. Interaction studies were considered in 2-way analyses of variance, with Pretreatment and Test dose as the factors.

[8] = 5% of the dose that increased MAP 10%, mean ± SEM
[9] = 10% of the dose that increased MAP 10%
[10] = 50% of the dose that increased MAP 10%
[11] = drug 1% topical, drug treated eye (T), 0.5 hr
[12] = drug 1% topical, drug treated eye (T), 1 hr
[13] = drug 1% topical, drug treated eye (T), 3 hr
[14] = drug 1% topical, drug treated eye (T), 5 hr
[15] = drug 1% topical, drug treated eye (T), −0.5 hr (pre-treatment)
[16] = drug 1% topical, drug treated eye (T), −1 hr (pre-treatment)
[17] = drug 1% topical, untreated contralateral eye (U), 0.5 hr
[18] = drug 1% topical, untreated contralateral eye (U), 1 hr
[19] = drug 1% topical, untreated contralateral eye (U), 3 hr
[20] = drug 1% topical, untreated contralateral eye (U), 5 hr
[21] = drug 1% topical, untreated contralateral eye (U), −0.5 hr (pre-treatment)
[22] = drug 1% topical, untreated contralateral eye (U), −1 hr (pre-treatment), mean ± S.E.
[23] = drug 2% topical, drug treated eye (T), 0.5 hr
[24] = drug 2% topical, drug treated eye (T), 1 hr
[25] = drug 2% topical, drug treated eye (T), 3 hr
[26] = drug 2% topical, drug treated eye (T), 5 hr
[27] = drug 2% topical, drug treated eye (T), −0.5 hr (pre-treatment)
[28] = drug 2% topical, drug treated eye (T), −1 hr (pre-treatment)
[29] = drug 2% topical, untreated contralateral eye (U), 0.5 hr
[30] = drug 2% topical, untreated contralateral eye (U), 1 hr
[31] = drug 2% topical, untreated contralateral eye (U), 3 hr
[32] = drug 2% topical, untreated contralateral eye (U), 5 hr
[33] = drug 2% topical, untreated contralateral eye (U), −0.5 hr (pre-treatment)
[34] = drug 2% topical, untreated contralateral eye (U), −1 hr (pre-treatment)

SMILES: CN[C@@H](C)[C@H](O)c1ccccc1 [(−)-ephedrine]
- Dosage of Enantiomer that Raised Mean Arterial Pressure 10%, Rat [1]: 30 µg
- Ki [2]: 47 µM
- effect on IOP (in words) ([3]; topical 1% and 2%, rabbit, treated eye): increased IOP
- Mean Decrease in Nasal Airway Pressure [4, 8]: −1.0 ± 0.8 mm water
- Mean Decrease in Nasal Airway Pressure [4, 9]: −2.5 ± 1.5 mm water
- Mean Decrease in Nasal Airway Pressure [4, 10]: −1.9 ± 2.0 mm water
- Mean decrease in nasal airway pressure, % Change [4]: −14%
- Nasal airway pressure, Post Drug [4]: 6 ± 0.5 mm H2O
- Nasal airway pressure, Control [4]: 7 ± 0.8 mm H2 O
- Intravenous Dose Needed to Increase MAP 10% [5]: 0.1 mg/kg
- Mydriatic Responses, TREATED EYE ([6]; 1% solution): 0
- Mydriatic Responses, UNTREATED EYE ([6]; 1% solution): 0
- Mydriatic Responses, TREATED EYE ([6]; 2% solution): +++ (+++ >4 mm change)
- Mydriatic Responses, UNTREATED EYE ([6]; 2% solution): +++ (+++ >4 mm change)
- Pupil Diameter [6, 11]: 6 ± 0.4 mm
- Pupil Diameter [6, 12]: 6 ± 0.4 mm
- Pupil Diameter [6, 13]: 6 ± 0.4 mm
- Pupil Diameter [6, 14]: 6 ± 0.4 mm
- Pupil Diameter [6, 15]: 6 ± 0.4 mm
- Pupil Diameter [6, 16]: 6 ± 0.4 mm
- Pupil Diameter [6, 17]: 6 ± 0.4 mm
- Pupil Diameter [6, 18]: 6 ± 0.4 mm
- Pupil Diameter [6, 19]: 6 ± 0.4 mm
- Pupil Diameter [6, 20]: 6 ± 0.4 mm
- Pupil Diameter [6, 21]: 6 ± 0.4 mm
- Pupil Diameter [6, 22]: 6 ± 0.4 mm
- Pupil Diameter [6, 23]: 9 ± 0.2 mm
- Pupil Diameter [6, 24]: 9 ± 0.2 mm
- Pupil Diameter [6, 25]: 9 ± 0.2 mm
- Pupil Diameter [6, 26]: 9 ± 0.2 mm
- Pupil Diameter [6, 27]: 5 ± 0.2 mm
- Pupil Diameter [6, 28]: 5 ± 0.2 mm
- Pupil Diameter [6, 29]: 9 ± 0.2 mm
- Pupil Diameter [6, 30]: 9 ± 0.2 mm
- Pupil Diameter [6, 31]: 9 ± 0.2 mm
- Pupil Diameter [6, 32]: 9 ± 0.2 mm
- Pupil Diameter [6, 33]: 5 ± 0.2 mm
- Pupil Diameter [6, 34]: 5 ± 0.2 mm
- mydriasis / effect on pupil diameter (in words) ([6]; topical, rabbit): had no effect on pupil diameter
- locomotor depressant effect (in words) [7]: did not cause locomotor depression
- locomotor stimulant effect (in words) [7]: increased locomotion
- onset of increased locomotion after injection ([7]; (−)-ephedrine: following 50 to 100 mg/kg): ≤ 40 min

SMILES: CNC[C@H](O)c1cccc(O)c1 [(−)-phenylephrine]
- Dosage of Enantiomer that Raised Mean Arterial Pressure 10%, Rat [1]: 3 to 5 µg
- Ki [2]: 3 µM
- IOP [3, 11]: 24 ± 0.6 mmHg
- IOP [3, 12]: 24 ± 1.0 mmHg
- IOP [3, 13]: 23 ± 1.5 mmHg
- IOP [3, 14]: 21 ± 1.9 mmHg
- IOP [3, 15]: 16 ± 1.5 mmHg
- IOP [3, 16]: 20 ± 1.6 mmHg
- IOP [3, 17]: 18 ± 1.6 mmHg
- IOP [3, 18]: 19 ± 1.3 mmHg
- IOP [3, 19]: 20 ± 1.9 mmHg
- IOP [3, 20]: 19 ± 1.7 mmHg
- IOP [3, 21]: 15 ± 2.1 mmHg
- IOP [3, 22]: 16 ± 1.0 mmHg
- IOP [3, 23]: 12 ± 0.8 mmHg
- IOP [3, 24]: 14 ± 2.0 mmHg
- IOP [3, 25]: 16 ± 0.8 mmHg
- IOP [3, 26]: 14 ± 1.3 mmHg
- IOP [3, 27]: 15 ± 1.5 mmHg
- IOP [3, 28]: 18 ± 1.6 mmHg
- IOP [3, 29]: 20 ± 2.0 mmHg
- IOP [3, 30]: 20 ± 2.4 mmHg
- IOP [3, 31]: 14 ± 1.7 mmHg
- IOP [3, 32]: 14 ± 2.0 mmHg
- IOP [3, 33]: 17 ± 1.9 mmHg
- IOP [3, 34]: 17 ± 1.9 mmHg
- Mean Decrease in Nasal Airway Pressure [4, 8]: −1.6 ± 0.9 mm water
- Mean Decrease in Nasal Airway Pressure [4, 9]: −4.8 ± 0.8 mm water
- Mean Decrease in Nasal Airway Pressure ([4]; 25% of the dose that increased MAP 10%): −12.1 ± 2.4 mm water
- Mean Decrease in Nasal Airway Pressure [4, 10]: −5.2 ± 1.6 mm water
- Mean decrease in nasal airway pressure, % Change [4]: −20.3%
- Nasal airway pressure, Post Drug [4]: 4 ± 0.2 mm H2O
- Nasal airway pressure, Control [4]: 5 ± 0.2 mm H2 O
- Intravenous Dose Needed to Increase MAP 10% [5]: 0.01 mg/kg
- Mydriatic Responses, TREATED EYE ([6]; 1% solution): ++ (++ = 2-4 mm change)
- Mydriatic Responses, UNTREATED EYE ([6]; 1% solution): 0
- Mydriatic Responses, TREATED EYE ([6]; 2% solution): +++ (+++ >4 mm change)
- Mydriatic Responses, UNTREATED EYE ([6]; 2% solution): +++ (+++ >4 mm change)
- Pupil Diameter [6, 11]: 7 ± 0.4 mm
- Pupil Diameter [6, 12]: 9 ± 0.4 mm
- Pupil Diameter [6, 13]: 9 ± 0.4 mm
- Pupil Diameter [6, 14]: 9 ± 0.4 mm
- Pupil Diameter [6, 15]: 6 ± 0.4 mm
- Pupil Diameter [6, 16]: 6 ± 0.4 mm
- Pupil Diameter [6, 17]: 6 ± 0.4 mm
- Pupil Diameter [6, 18]: 6 ± 0.4 mm
- Pupil Diameter [6, 19]: 6 ± 0.4 mm
- Pupil Diameter [6, 20]: 6 ± 0.4 mm
- Pupil Diameter [6, 21]: 6 ± 0.4 mm
- Pupil Diameter [6, 22]: 6 ± 0.4 mm
- Pupil Diameter [6, 23]: 12 ± 0.2 mm
- Pupil Diameter [6, 24]: 12 ± 0.2 mm
- Pupil Diameter [6, 25]: 12 ± 0.2 mm
- Pupil Diameter [6, 26]: 12 ± 0.2 mm
- Pupil Diameter [6, 27]: 6 ± 0.2 mm
- Pupil Diameter [6, 28]: 6 ± 0.2 mm
- Pupil Diameter [6, 29]: 12 ± 0.2 mm
- Pupil Diameter [6, 30]: 12 ± 0.2 mm
- Pupil Diameter [6, 31]: 12 ± 0.2 mm
- Pupil Diameter [6, 32]: 12 ± 0.2 mm
- Pupil Diameter [6, 33]: 6 ± 0.2 mm
- Pupil Diameter [6, 34]: 6 ± 0.2 mm
- Depression Potency (ID50, dose resulting in ½ the maximal depressant effect) [7]: 2.3 mg/kg
- Depression Time (30-min period following injection in which the maximal depression occurred) [7]: 0 to 30 min
- Stimulation Time (30-min period following injection in which the maximal stimulant effect occurred) [7]: 60 to 90 min
- locomotor depressant effect (in words) [7]: some locomotor depression
- locomotor stimulant effect (in words) [7]: Little or no stimulant effects
